Experimental data from ChEMBL document CHEMBL1201862, “PubChem BioAssay data set” (2004).
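Step 1: Grow cells in 96-well plates. Step 2: Expose to compound for 48 hours at 5 concentrations. Step 3: Interpolate endpoints linearly; if unreached, use highest concentration. Here, GI50 denotes the concentration required for 50% inhibition of growth.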 Calls of active or inactive are those of the source. Rule as the data show it: active = GI50 up to about 1.1 µM and inactive = higher.

Legend:
Test in all cases: growth of human tumour cells (NCI), 48 h
M19-MEL = system: M19-MEL
DLD-1 = system: DLD-1
DMS-273 = system: DMS-273
LXFL 529 = system: LXFL 529
XF498 = system: XF498
BT-549 = system: BT-549
RXF 631 = system: RXF 631
HOP-18 = system: HOP-18
KM-20L2 = system: KM-20L2

Structure (SMILES) | GI50 (M19-MEL) | GI50 (DLD-1) | GI50 (LXFL 529) | GI50 (BT-549) | GI50 (KM-20L2) | further results
Clc1ccc(OCc2nnc3n2N=C(c2ccccc2)CS3)c(Cl)c1 | > 100 µM (inactive) | 7.26 µM (inactive) | 5.6 µM (inactive) |  |  | GI50 (DMS-273): 5.56 µM (inactive); GI50 (XF498): > 100 µM (inactive)
O=S1(=O)CCN(Cc2ccccn2)CC1 |  |  |  | > 100 µM (inactive) |  | 
O=C(O)C(=O)Cc1ccc2c(c1)OCO2 |  |  |  | > 100 µM (inactive) |  | 
O=C(/C=C/c1ccc2c(c1)OCO2)NCc1ccco1 |  |  |  | 25.9 µM (inactive) |  | 
COc1ccc(C(=O)CC(c2ccc(OC)c(OC)c2)c2c(O)oc3ccccc3c2=O)cc1OC (centres undefined) |  |  |  | > 100 µM (inactive) |  | 
COC(=O)C(Br)C1CCc2ccccc21 (centres undefined) | > 100 µM (inactive) | > 100 µM (inactive) | > 100 µM (inactive) |  | > 100 µM (inactive) | GI50 (DMS-273): > 100 µM (inactive); GI50 (RXF 631): > 100 µM (inactive); GI50 (HOP-18): 65.3 µM (inactive)
Cc1nn(C(=O)c2ccccc2O)c2c1C(c1ccc([N+](=O)[O-])cc1)SC(=N)N2 (centres undefined) |  |  |  | 7.8 µM (inactive) |  | 
CC(=O)C1=NN(c2ccccc2)C2(S1)SC(c1ccccc1)(c1ccccc1)c1ccccc12 (centres undefined) | 47.8 µM (inactive) | 61.4 µM (inactive) | 15.2 µM (inactive) |  | > 100 µM (inactive) | GI50 (DMS-273): 17.6 µM (inactive); GI50 (HOP-18): > 100 µM (inactive)
Oc1nc2cc3nc(O)c(O)nc3cc2nc1O |  |  |  | > 100 µM (inactive) |  | 
COC(=O)CC1C=CC(C)(OC)OO1 (centres undefined) |  |  |  | > 100 µM (inactive) |  | 
COc1cc(C2=C(c3cc(OC)c4ccccc4c3OC)C(=O)c3ccccc3C2=O)c(OC)c2ccccc12 |  |  |  | > 100 µM (inactive) |  | 
COP(=O)(OC)C(C)(C)NC(=O)NC(F)(F)F |  |  |  | > 100 µM (inactive) |  | 
CCNC1=C(NC(=O)c2ccccc2)C(=O)c2ccccc2C1=O |  |  |  | 90.4 µM (inactive) |  | 
Cc1ccc(N)c(S)c1 |  |  |  | 18.6 µM (inactive) |  | 
CN(C)CCCNc1ccc2nnn3c4ccc(OC(=O)c5ccccc5)cc4c(=O)c1c23 |  |  |  | 16.8 µM (inactive) |  | 
CCCP1(=O)C=C(C)C(=C(Cl)Cl)C(C)=C1 (centres undefined) | 47.9 µM (inactive) | 67.3 µM (inactive) | 30.1 µM (inactive) |  | 18.3 µM (inactive) | GI50 (HOP-18): > 100 µM (inactive)
CC/C=C\C/C=C\C1CC(=O)NCCCNCCCCN1 (centres undefined) | > 100 µM (inactive) | > 100 µM (inactive) | > 100 µM (inactive) |  | > 100 µM (inactive) | GI50 (DMS-273): > 100 µM (inactive)

Structure (SMILES) | GI50 (M19-MEL) | GI50 (DLD-1) | GI50 (LXFL 529) | GI50 (BT-549) | GI50 (KM-20L2) | further results
CCCCCCCCCCCC(=O)OCCOCCOCCOCCOCCOCc1ccccc1 | > 100 µM (inactive) | > 100 µM (inactive) | > 100 µM (inactive) |  | > 100 µM (inactive) | GI50 (DMS-273): > 100 µM (inactive); GI50 (HOP-18): > 100 µM (inactive)
O=C(O)c1nc2ccc(C(F)(F)F)cc2nc1NCc1ccc(F)cc1 |  |  |  | 25.9 µM (inactive) |  | 
O=[N+]([O-])c1cc(-c2nnc(S)[nH]2)ccc1O | 86.3 µM (inactive) | > 100 µM (inactive) | > 100 µM (inactive) |  | > 100 µM (inactive) | GI50 (DMS-273): 67.6 µM (inactive); GI50 (RXF 631): > 100 µM (inactive)
Cc1cccc(Br)[n+]1[O-] |  |  |  | > 100 µM (inactive) |  | 
O=C1CC2(CCNCC2)C(=O)N1N1CCCC1 |  |  |  | > 100 µM (inactive) |  | 
O=C1C2=C(c3ccccc31)C(c1ccc([N+](=O)[O-])cc1)NC(S)=N2 (centres undefined) | 78.9 µM (inactive) | 69 µM (inactive) | 41 µM (inactive) |  | > 100 µM (inactive) | GI50 (DMS-273): 59.4 µM (inactive); GI50 (RXF 631): > 100 µM (inactive); GI50 (XF498): 31.5 µM (inactive)
O=CC[C@H]1C(=O)C[C@@H]2CCC[C@@H]21 | 56.2 µM (inactive) |  | 48 µM (inactive) |  |  | GI50 (XF498): > 100 µM (inactive)
COc1ccc(N2C(=O)CC(=O)N(NC(=O)C(C)Oc3ccccc3C)C2=S)cc1 (centres undefined) |  |  |  | > 100 µM (inactive) |  | 
COc1c(C)c(C/C=C(\C)CCCCO)c(OC)c(OC)c1OC |  |  |  | > 100 µM (inactive) |  | 
Cc1nnc2c3nnc(C)n3c3ccccc3n12 |  | > 100 µM (inactive) | > 100 µM (inactive) |  | > 100 µM (inactive) | GI50 (DMS-273): > 100 µM (inactive); GI50 (XF498): > 100 µM (inactive)
NC(=O)NCCCC(NC(=O)OCCCCCn1ccc(=O)[nH]c1=O)C(=O)O (centres undefined) |  |  |  | > 100 µM (inactive) |  | 
O=c1cc(NNc2cccc3ccccc23)[nH]c(=O)[nH]1 |  |  |  | 16.4 µM (inactive) |  | 
[N-]=[N+]=C(C(=O)C(=[N+]=[N-])C(=O)c1ccccc1)C(=O)c1ccccc1 |  |  |  | > 100 µM (inactive) |  | 
COc1c(C)n(CCO)ccc1=O | > 100 µM (inactive) | > 100 µM (inactive) | > 100 µM (inactive) |  | > 100 µM (inactive) | GI50 (DMS-273): > 100 µM (inactive); GI50 (RXF 631): > 100 µM (inactive); GI50 (XF498): > 100 µM (inactive)
Cc1ccc(NC(=O)C(=O)Cc2cccc[n+]2[O-])cc1C | > 100 µM (inactive) | > 100 µM (inactive) | > 100 µM (inactive) |  | > 100 µM (inactive) | GI50 (HOP-18): > 100 µM (inactive); GI50 (XF498): > 100 µM (inactive)
C=C(C)C1CC2(C)C(C)CC(O)CC2C(OC(=O)C=C(C)C)C1O (centres undefined) |  |  |  | 42.4 µM (inactive) |  | 
